According to patent US7723289B2, “PIF tetrapeptides” (BioIncept, LLC, priority 2003, dated 2010):
Read-outs that look alike come from different tables or passages of the source.

How the values were obtained:
epithelial cells = experiment: PIF binding to endometrial epithelial cells (MaBCD2 staining); set-up: species or system human; settings: compared to non-relevant IgG
Experimental: (§1) In addition, to compare the recovery of β-3 integrin expression with PIF effects described after cultured hEEC in a free-fetal bovine serum (FBS) medium some cells were cultured again in FBS-medium. […] PIF binding to epithelial cells was also examined. Binding was examined using MaBCD2 staining.

PBMC [1] = experiment: Cytokine release (ELISA) and intracellular cytokine staining in stimulated PBMC; format: cell-based, human
Experimental: FIG. 2. sPIF-1(15) (SEQ ID NO:13) increases the percentage of PBMC that contain TH2 type cytokines (IL10, IL 4), while scrPIF-1(15) (SEQ ID NO: 5) has a TH1 bias (INFgamma). Isolated PBMC were stimulated by PHA (1 ug/ml) and cultured 2-4 days with sPIF-1(15) (SEQ ID NO:13) or scrPIF-1(15) (SEQ ID NO:5). 30 nM. PBMC cytokines content was determined by specific staining using flow cytometry. Effect of PIF-1 on cellular content of cytokines of PBMC was examined up to 96 hours and a time dependent pattern emerged, not replicated by scrambled or irrelevant peptide. Measurements were carried out in two separate stages. At the cellular induction/synthetic level, lymphocytes were cultured in the presence of PHA for various periods with or without PIF-1 then processed for intracellular immunostaining (activation by PMA plus ionomycin in the presence of monenisn and berfeldin, followed by permeabilization and immunostaining) for the detection of nascent cytokines.
Human PBMC were isolated and cultured for 2-4 days in AIM-V medium containing 0 to 200 nM of sPIF-115 (SEQ ID NO:13) or scrPIF-115 (SEQ ID NO:5). The following proliferation-activating agents were used: anti-CD3 antibody (10 μg/ml solution) bound on the plate wells in the presence or absence of IL-2 at 10 μg/ml; phytohemmaglutinin (PHA) at 4 μg/ml. The effects of sPIF-115 (SEQ ID NO:13) or scrPIF-115 (SEQ ID NO:5) peptides were also determined by the mixed lymphocyte reaction (MLR) after 3 days in heterologous cultures of PBMC with cells previously treated with mitomycin C (100 μg/ml for 4 h). Cell proliferation was determined by tritiated thymidine incorporation (16 h) of 72-h culture. Cytokine release (IL-4, IL-10, IFN-γ and TNF-α) into culture supernatants was determined at 72 h of culture by ELISA (R&D System).

PBMC [2] = experiment: PIF and analogues on release of cytokines +/- platebound mAbCD3 (Table 4); format: cell-based; set-up: IL-1β / TNFa / IL-4 / IL-5 / IL-6 / IL-10 / GM-CSM / IFN-g: unit not given here
[3] = tested on: PIF-1 polyclonal antibody; experiment: PIF-1 competitive ELISA, biotin labeled versus unlabeled peptide; format: binding, rabbits; settings: 4.5 ug/ml pAb coating concentration; read-out: IC50 of dose response curve
CD3 = CD3 expression in PBMC (flow cytometry, MAbCD3-PE); format: cell-based; settings: PBMC exposed 3 days, 2-200 nM
Experimental: Fluorescent PIF peptides bind to immune cell membranes following activation. […] CD69 is expressed during activation of lymphocytes and monocytes, and is a marker of NK cells activation. CD25 is the receptor for IL-2, and a known activation marker as well. […] The expression of CD3 in PBMC was examined following exposure for 3 days to sPIF-1(15) (SEQ ID NO:13) (2-200 nM) using 20 ul MAbCD3-PE (BD).

PBMC [4] = settings: PHA +
Experimental: sPIF-115 (SEQ ID NO:13) effect was tested on a patient with over 14 miscarriages and no live birth. Their immune cells were examined in the non-pregnant state, by exposure to sPIF-115 (SEQ ID NO:13) using PBMC preparations. Induction of PIF receptor expression, and binding to lymphocytes were used to characterize the treated cells.

β-3 integrin = β-3 integrin expression by human endometrial epithelial cells (flow cytometry, immunocytochemistry); format: cell-based
Experimental: Human endometrial tissues were digested and stromal and epithelial cells (hEEC) isolated and cultured with a fetal bovine serum (FBS)-enriched medium until confluent layers were obtained. After that the cells were cultured for two more days in a FBS free-medium followed by a further 2-day culture in the same medium containing PIF peptides (1-500 nM).
as §1

CD2 = CD2 expression in PBMC (flow cytometry, CD2MAb-FITC); format: cell-based; settings: PBMC exposed 3 days

Experimental for 46 different kinases: The effect of PIF-1 on kinases related to metabolic function was examined. The methodology for testing PIF activity on MEK1 kinase is described below, but it is applicable for all kinases tested: 50 nM Tris pH, 0.1 mM EGTA 0.10% b-mercaptoethanol 1 mg/mg BSA PIF-1 15 was dissolved in deionised water at 5 nM-5 uM range of concentrations. […] (SEQ ID NO: 23), 10 mM Mg Acetate and [gamma-33P-ATP] 500 cpm/pmol. Reaction initiated with addition of MgATP. After 40 minutes incubation at room temperature, reaction stopped by the addition of 5 ul of a 3% phosphoric acid solution. 10 ul of the reaction is spotted onto a P30 filtermat and washed three times for 5 min in 75 mM phosphoric acid and once in methanol prior to drying and scintillation counting.
The effects of PIF on 46 different kinases (listed below in Table 5) related to metabolic function were tested.
Experimental for T cells: We have examined using calcium mobilization in T cells which is central to T-Cell activation initiated by antigen presentation to the T-Cell Receptor (TCR) antigen whether PIF-1 acts through mobilization of Ca++flux. Activation of T-cells was carried out by using phorbal ester (PMA) and Ca2+ ionomycin both of which synergize through two different signaling pathways the former through Protein Kinase C, while the later through Tyrosine Kinases. […] We have also looked at Tcell activation using PHA.
Calcium channel analysis method: 2E6 freshly isolated PBMC in RPMI1640+10% FBS (HI) and equilibrated for 24 hours. Cells are loaded with a proprietary dye that fluorescence when bound with Ca++. PIF-11 or 50 nM as well as 1-50 nM scrPIF-1 were added prior to inducing the cells with PMA/ionomycin or PHA20 ug/ml or vehicle 0.005% DMSO. PIF-1 treated cells are loaded into the Flexstation and the inducer is added robotically with a liquid handler. At a precise time fluorescence monitoring commences. CA++ mobilization involves initially at least sequestered within organelles to the cytoplasm where it binds with the dye and produces a fluorescent signal.

Sequence: MVRIKPGSANKPSDD [sPIF-1(15)]
- binding to epithelial cells (epithelial cells): highest binding
- percentage of PBMC that contain TH2 type cytokines (IL10, IL 4) (PBMC [1]; PHA 1 ug/ml, 2-4 days, 30 nM, flow cytometry): increases
- IFN-γ decrease (PBMC [1]; one day after IL-10 increase): 30%
- increase in number of IL-10 secreting cells (PBMC [1]; starting at day 2, peaking at days 3-4): 50-60%
- increase of TH2/TH1 cytokine ratio in PBMC (PBMC [1]; stimulated PBMC): more than five-fold
- IFN-γ release in culture supernatants (PBMC [1]; stimulated PBMC, 72 h, ELISA): significantly decreased
- IL-4 release (PBMC [1]; stimulated PBMC, 72 h, ELISA): does not have a significant effect
- IL-10 release in culture supernatants (PBMC [1]; stimulated PBMC, 72 h, ELISA): significantly increased
- TNF-α release (PBMC [1]; stimulated PBMC, 72 h, ELISA): does not have a significant effect
- PHA stimulation of Ca2+ influx (T cells; PHA activated T cells): does not show any inhibition
- Ca++ mobilization (T cells; PMA and ionomycin activated T-cells, 1 nM-50 uM): did not affect
- GM-CSM (PBMC [2]; C- (platebound mAbCD3), /1): 20.7
- IFN-g (PBMC [2]; C- (platebound mAbCD3), /1): 122.6
- IL-1β (PBMC [2]; C- (platebound mAbCD3), /1): 3.4
- IL-2 (PBMC [2]; C- (platebound mAbCD3), /1): 21.4
- IL-4 (PBMC [2]; C- (platebound mAbCD3), /1): 17.2
- IL-5 (PBMC [2]; C- (platebound mAbCD3), /1): 0
- IL-6 (PBMC [2]; C- (platebound mAbCD3), /1): 204.2
- IL-8 (PBMC [2]; C- (platebound mAbCD3), /1): >5000
- IL-10 (PBMC [2]; C- (platebound mAbCD3), /1): 72.9
- TNFa (PBMC [2]; C- (platebound mAbCD3), /1): 135.7
- GM-CSM (PBMC [2]; C- (platebound mAbCD3), /50): 29.1
- IFN-g (PBMC [2]; C- (platebound mAbCD3), /50): 130.3
- IL-1β (PBMC [2]; C- (platebound mAbCD3), /50): 4.4
- IL-2 (PBMC [2]; C- (platebound mAbCD3), /50): 31.0
- IL-4 (PBMC [2]; C- (platebound mAbCD3), /50): 17.9
- IL-5 (PBMC [2]; C- (platebound mAbCD3), /50): 0
- IL-6 (PBMC [2]; C- (platebound mAbCD3), /50): 287.7
- IL-8 (PBMC [2]; C- (platebound mAbCD3), /50): >5000
- IL-10 (PBMC [2]; C- (platebound mAbCD3), /50): 77.0
- TNFa (PBMC [2]; C- (platebound mAbCD3), /50): 223.5
- GM-CSM (PBMC [2]; U- (no mAbCD3), /1): 12.5
- IFN-g (PBMC [2]; U- (no mAbCD3), /1): 0
- IL-1β (PBMC [2]; U- (no mAbCD3), /1): 0
- IL-2 (PBMC [2]; U- (no mAbCD3), /1): 19.9
- IL-4 (PBMC [2]; U- (no mAbCD3), /1): 0
- IL-5 (PBMC [2]; U- (no mAbCD3), /1): 0
- IL-6 (PBMC [2]; U- (no mAbCD3), /1): 32.2
- IL-8 (PBMC [2]; U- (no mAbCD3), /1): 963.0
- IL-10 (PBMC [2]; U- (no mAbCD3), /1): 0
- TNFa (PBMC [2]; U- (no mAbCD3), /1): 0
- GM-CSM (PBMC [2]; U- (no mAbCD3), /50): 0
- IFN-g (PBMC [2]; U- (no mAbCD3), /50): 0
- IL-1β (PBMC [2]; U- (no mAbCD3), /50): 0
- IL-2 (PBMC [2]; U- (no mAbCD3), /50): 0
- IL-4 (PBMC [2]; U- (no mAbCD3), /50): 0
- IL-5 (PBMC [2]; U- (no mAbCD3), /50): 0
- IL-6 (PBMC [2]; U- (no mAbCD3), /50): 37.8
- IL-8 (PBMC [2]; U- (no mAbCD3), /50): 1426.7
- IL-10 (PBMC [2]; U- (no mAbCD3), /50): 0
- TNFa (PBMC [2]; U- (no mAbCD3), /50): 0
- IC50 [3]: 0.5 to 0.7 nM
- increase in CD3 receptor expression (CD3): 215-420%
- (PIF+/CD4+)/CD4+ (PBMC [4]; Control specimen): 22.1
- (PIF+/CD4+)/CD4+ difference in parentheses (PBMC [4]; Control specimen): 0%
- (PIF+/CD8+)/CD8+ (PBMC [4]; Control specimen): 24.5
- (PIF+/CD19+)/CD19+ (PBMC [4]; Control specimen): 46.2
- (PIF+/CD4+)/CD4+ (PBMC [4]; Patient specimen): 16.2
- (PIF+/CD8+)/CD8+ (PBMC [4]; Patient specimen): 16.3
- (PIF+/CD19+)/CD19+ (PBMC [4]; Patient specimen): 48.2
- (PIF+/CD4+)/CD4+ difference in parentheses (PBMC [4]; Patient vs control): −27%
- (PIF+/CD8+)/CD8+ difference in parentheses (PBMC [4]; Patient vs control): −33%
- interaction with kinases related to metabolic function (46 different kinases): does not interact with any of kinases
- increase in the expression of β-3-epithelial integrin (β-3 integrin; hEEC, 2-day culture, 1-500 nM): up to a four-fold increase
- interaction with cultures of human endometrial stromal cells (β-3 integrin; stromal cells): did not interact
- increase in CD2 expression (CD2): 170-200%
